Measurements published in publication PMC5550456, “Vitamin B12 as a carrier of peptide nucleic acid (PNA) into bacterial cells” (Scientific Reports, 2017).
Where no end group is shown, it is not given here.

Legend:
some mammalian cells = conditions: cited from earlier work
Excerpt: (§1) The most serious drawback, which currently precludes the use of this approach, is poor delivery of the oligonucleotides into bacterial cells. The bacterial cell wall prevents the efficient uptake of short oligonucleotides from the environment[14] and non-invasive delivery of PNAs is extremely difficult. To overcome this problem, chemical conjugation of PNA to a variety of cell-penetrating peptides has been tested, [15], [16]. The most commonly used conjugate of PNA with the peptide (KFF)3K was delivered with high efficiency in vitro. However, the activity of (KFF)3K-PNA conjugates was drama ...

[1] = cited from earlier work
Excerpt: as §1

S. Typhimurium = test: Effect on bacterial growth (OD600) of S. Typhimurium; format: cell-based, Salmonella Typhimurium; conditions: up to the tested 16 μM concentrations
Experimental: (§2) The effect of the different PNA conjugates and controls on the red fluorescence of bacterial cells was determined using a standard microdilution method[67] in concentration range 0–16 µM. Cultures grown to exponential phase in Davis Minimal Broth were diluted to ~5 × 10^5 CFU/ml. These cell suspensions were added to wells of sterile 96-well plates containing different concentrations of the tested compounds. Following overnight incubation at 37 °C with shaking, the plates were vigorously shaken (double orbital) for 10 sec and then the cell density (OD600) and fluorescence (λ excitation – 584 nm; λ emission – 610 nm) were measured using a plate reader (Microplate Reader Biotek Synergy H1MFDG). The cell suspensions were also examined by light and fluorescence microscopy using a Nikon Eclipse Ni-U microscope (Figure S1).

[2] = cited from earlier work; remark: listed apart in the source
Experimental: There was no decrease in OD600 upon overnight treatment with the conjugates (up to the tested 16 μM concentrations). Free vitamin B12 has no antibacterial activity at concentrations up to 100 μg/ml[52].

E. coli = test: Effect on bacterial growth (OD600) of E. coli; format: cell-based, Escherichia coli; conditions: up to the tested 16 μM concentrations
Experimental: as §2

[3] = test system: mRNA of the reporter gene mrfp1 expressing Red Fluorescent Protein; test: Inhibition of RFP synthesis (red fluorescence) in E. coli carrying pBBR(rfp); format: cell-based, Escherichia coli K-12 MG1655; conditions: overnight treatment, 0–16 µM
Experimental: E. coli TG1[58] was used for plasmid construction. For triparental mating, E. coli DH5α carried the helper plasmid pRK2013[59] and E. coli S17-1[60] was the mrfp1 plasmid donor. E. coli K-12 MG1655[61], and Salmonella enterica subsp. enterica serovar Typhimurium LT2-R (rifampicin resistant mutant of wild-type S. Typhimurium LT2[62]) were used in PNA delivery experiments. To prepare inocula, all strains were grown overnight in lysogeny broth (LB) at 37 °C with shaking. […] Cultures were supplemented with appropriate antibiotics to prevent plasmid loss.
as §2, with “Cultures grown to exponential phase in Davis Minimal Broth were diluted to ~5 × 10^5 CFU/ml. These cell suspensions were added to wells of sterile 96-well plates containing different concentrations of the tested compounds.” left out
To obtain relative fluorescence values (RFU), the background media noise was subtracted from each data point for both cell density (OD600) and fluorescence. […]

Substance	histamine release (some mammalian cells)	concentration with hemolytic activity [1]	bacterial growth, OD600 after overnight incubation (S. Typhimurium)	concentration without antibacterial activity [2]	bacterial growth, OD600 after overnight incubation (E. coli)	inhibition of RFP synthesis / mrfp1 expression (in words) [3]
KFFKFFKFFK-NH2 [(KFF)3K only]	initiates histamine release	40000 ng/mL	–	–	–	–
cyanocobalamin [vitamin B12]	–	–	slight increase of OD600	> 100 µg/mL	slight increase of OD600	Neither B12–(CH2)12-PNA(scrambled) (Fig. 6) nor free vitamin B12 (data not shown) had any inhibitory effect
